{"source": "paper PMC11864979", "about": "“First-in-class ultralong-target-residence-time p38α inhibitors as a mitosis-targeted therapy for colorectal cancer” (Nature Cancer, 2025)", "key": {"PDO10": {"system": "PDO10", "test": "cell viability in patient-derived CRC organoids PDO10", "format": "cell-based, human", "description": "(§1) For in vitro treatment studies, organoids were mechanically dissociated and digested using TrypLE supplemented with 100 µg ml^−1 DNaseI and 10.5 µM Y-27632 dihydrochloride (Invitrogen) at 37 °C. A total of 1,000–2,000 single cells were plated per well in white 96-well plates (Greiner) in culture medium containing 10% GFR Matrigel or Cultrex BME. The treatment with doxycycline (5 µg ml^−1), pharmacological inhibitors or corresponding volumes of DMSO was started 24 h after plating. Doxycycline was obtained from Sigma-Aldrich. […] Cell viability was measured by means of CellTiter-Glo 3D or CellTiter-Glo 2.0 reagent (Promega) according to the manufacturers’ instructions and the Infinite M Plex reader (Tecan, i-control version 3.9.1 software). Results were normalized to vehicle (DMSO) or to shNC. For cell-doubling assays, the cell number was quantified at the corresponding time points using Guava EasyCyte flow cytometer (Luminex, CytoSoft v5.2 software)."}, "PDO15": {"system": "PDO15", "test": "cell viability in patient-derived CRC organoids PDO15", "format": "cell-based, human", "description": "as §1"}, "PDO6": {"system": "PDO6", "test": "cell viability in patient-derived CRC organoids PDO6", "format": "cell-based, human", "description": "as §1"}, "KAP organoids": {"system": "KAP organoids", "test": "cell viability in KAP organoids (CellTiter-Glo)", "format": "cell-based, mouse", "settings": "for viability at 1 µM: Mus musculus", "description": "as §1"}, "PDO7": {"system": "PDO7", "test": "cell viability in patient-derived CRC organoids PDO7", "format": "cell-based, human", "description": "as §1"}, "PDO9": {"system": "PDO9", "test": "cell viability in patient-derived CRC organoids PDO9", "format": "cell-based, human", "description": "as §1"}, "HCT 116": {"system": "HCT 116", "test": "cell viability in human CRC cell line HCT 116", "format": "cell-based", "settings": "4 d", "description": "To generate KAP^2D cells, KAP organoids were isolated from Matrigel, fragmented by mechanical dissociation and plated without any extracellular matrix on common cell culture dishes. Phoenix-Eco packaging cells (CRL-3214), HCT-15 (CCL-225), HCT 116 (CCL-247), COLO 205 (CCL-222), LS 174T (CL-188), RKO (CRL-2577) and HT-29 (HTB-38) were obtained from the American Type Culture Collection. The cells were cultured at 37 °C and 7% CO2 with RPMI (KAP^2D cells) or DMEM (other cell lines), supplemented with 10% FBS and penicillin–streptomycin. KAP^2D cells were authenticated using PCR (Kras locus and Trp53 locus). Phoenix-Eco packaging cells and HCT-15, HCT 116, COLO 205, LS 174T, RKO and HT-29 cells were authenticated by the provider using short tandem repeat profiling. No commonly misidentified cell lines were used. Mycoplasma contamination was excluded by a PCR-based analysis.\nas §1"}, "KAP^2D cells": {"system": "KAP^2D cells", "test": "annexin V apoptosis analysis in KAP^2D cells", "format": "cell-based, mouse", "settings": "Fig. 5a", "procedure": "Apoptosis was analyzed with the FITC annexin V apoptosis detection kit (Biolegend). Both measurements were performed with FACS Canto II (BD) and physical parameters were used to exclude cell debris and cell doublets."}}, "note": "Where “and” joins values, the source holds several entries; their conditions need not be identical. Equal entries are not always repeated. Where two headings read alike, the source gives them in different places.", "data": [{"smiles": "O=C(NCCN1CCOCC1)c1ccc2c(c1)C(=O)c1ccc(Nc3ccc(F)c(NC(=O)c4ccccc4)c3)cc1CC2", "note": "[Compound 1639]", "values": [{"measurement": "viability at 0.5 µM", "setting": "PDO10; Homo sapiens, 96 h, PDO10, 0.5 µM, 4 d, read-out: Cell viability (%)", "value": 90.3, "unit": "%"}, {"measurement": "viability at 1 µM", "setting": "PDO10; Homo sapiens, 96 h, PDO10, 1 µM, 4 days, read-out: Cell viability (%)", "value": 87.1, "unit": "%"}, {"measurement": "Cell viability (%)", "setting": "PDO10; PDO10, 0.5 µM, 4 d, 0.5 µM", "value": "99.84% and 101.72%"}, {"measurement": "Cell viability (%)", "setting": "PDO10; PDO10, 1 µM, 4 days, 1 µM", "value": "92.00% and 89.92%"}, {"measurement": "viability at 0.5 µM", "setting": "PDO15; Homo sapiens, 96 h, PDO15, 0.5 µM, 4 d, read-out: Cell viability (%)", "value": 101, "unit": "%"}, {"measurement": "viability at 1 µM", "setting": "PDO15; Homo sapiens, 96 h, PDO15, 1 µM, 4 days, read-out: Cell viability (%)", "value": 87.7, "unit": "%"}, {"measurement": "Cell viability (%)", "setting": "PDO15; PDO15, 0.5 µM, 4 d, 0.5 µM", "value": "102.64% and 92.86%"}, {"measurement": "Cell viability (%)", "setting": "PDO15; PDO15, 1 µM, 4 days, 1 µM", "value": "91.79% and 86.01%"}, {"measurement": "viability at 1 µM", "setting": "PDO6; Homo sapiens, 96 h, PDO6, 1 µM, 4 days, read-out: Cell viability (%)", "value": 88.1, "unit": "%"}, {"measurement": "Cell viability (%)", "setting": "PDO6; PDO6, 0.5 µM, 4 d, 0.5 µM", "value": "89.33% and 120.75% and 95.55%"}, {"measurement": "Cell viability (%)", "setting": "PDO6; PDO6, 1 µM, 4 days, 1 µM", "value": "103.21% and 96.02%"}, {"measurement": "Cell viability (%)", "setting": "KAP organoids; Fig. 1g, 0.5 µM, replicates", "value": "93.61% and 119.78% and 82.99%"}, {"measurement": "Cell viability (%)", "setting": "KAP organoids; Fig. 1g, 1 µM, replicates", "value": "54.56% and 39.62%"}, {"measurement": "Cell viability (%)", "setting": "KAP organoids; Fig. 2b, compound screen, replicates", "value": "45.26% and 35.57% and 35.59%"}, {"measurement": "Cell viability (%)", "setting": "KAP organoids; Fig. 2f, 0,5 µM, replicates, 5 µM", "value": "109.96% and 85.33% and 68.50%"}, {"measurement": "Cell viability (%)", "setting": "KAP organoids; Fig. 2f, 0,25 µM, replicates, 25 µM", "value": "115.00% and 101.97% and 82.44%"}, {"measurement": "Cell viability (%)", "setting": "KAP organoids; Fig. 2f, 1 µM, replicates", "value": "55.27% and 54.06%"}, {"measurement": "viability at 1 µM", "setting": "KAP organoids; Fig. 1g, 1 µM, replicates, read-out: Cell viability (%)", "value": 51.8, "unit": "%"}, {"measurement": "viability at 1 µM", "setting": "KAP organoids; Fig. 2f, 1 µM, replicates, read-out: Cell viability (%)", "value": 72.9, "unit": "%"}, {"measurement": "viability at 1 µM", "setting": "KAP organoids; drug screen in KAP organoids, 1 µM concentration, n = 3, mean, read-out: Cell viability (% of DMSO)", "value": 38.8, "unit": "%"}, {"measurement": "induction of cell death in KAP organoids (in words)", "setting": "KAP organoids; viability assay", "value": "moderate but significant induction of cell death"}, {"measurement": "viability at 1 µM", "setting": "PDO7; Homo sapiens, 96 h, PDO7, 1 µM, 4 days, read-out: Cell viability (%)", "value": 103, "unit": "%"}, {"measurement": "Cell viability (%)", "setting": "PDO7; PDO7, 0.5 µM, 4 d, 0.5 µM", "value": "99.28% and 131.17% and 112.30%"}, {"measurement": "Cell viability (%)", "setting": "PDO7; PDO7, 1 µM, 4 days, 1 µM", "value": "115.94% and 100.13%"}, {"measurement": "viability at 1 µM", "setting": "PDO9; Homo sapiens, 96 h, PDO9, 1 µM, 4 days", "value": 76.2, "unit": "%"}, {"measurement": "Cell viability (%)", "setting": "PDO9; PDO9, 0.5 µM, 4 d, 0.5 µM", "value": "87.86% and 110.04% and 106.00%"}, {"measurement": "Cell viability (%)", "setting": "PDO9; PDO9, 1 µM, 4 days, 1 µM", "value": "91.05% and 91.07%"}, {"measurement": "HCT 116 Cell viability (%)", "setting": "HCT 116; 0.0137 µM", "value": "91.07% and 92.02% and 85.19% and 84.20% and 84.23%"}, {"measurement": "HCT 116 Cell viability (%)", "setting": "HCT 116; 0.0412 µM", "value": "81.63% and 80.34% and 77.04% and 76.76% and 74.10%"}, {"measurement": "HCT 116 Cell viability (%)", "setting": "HCT 116; 0.1235 µM", "value": "88.84% and 91.52% and 85.54% and 79.01% and 86.05%"}, {"measurement": "HCT 116 Cell viability (%)", "setting": "HCT 116; 0.3704 µM", "value": "94.73% and 98.85% and 85.83% and 87.08% and 84.20%"}, {"measurement": "HCT 116 Cell viability (%)", "setting": "HCT 116; 1.1111 µM", "value": "93.31% and 91.15% and 89.63% and 87.68% and 87.77%"}, {"measurement": "HCT 116 Cell viability (%)", "setting": "HCT 116; 3.3333 µM", "value": "77.27% and 77.51% and 74.83% and 76.92% and 78.08%"}, {"measurement": "HCT 116 Cell viability (%)", "setting": "HCT 116; 10.0000 µM", "value": "46.79% and 45.46% and 36.02% and 37.60% and 41.48%"}, {"measurement": "viability at 0.0137 µM", "setting": "HCT 116; Homo sapiens, HCT-116, 96 h, 0.0137 µM, read-out: HCT 116 Cell viability (%)", "value": 89.2, "unit": "%"}, {"measurement": "viability at 0.0412 µM", "setting": "HCT 116; Homo sapiens, HCT-116, 96 h, 0.0412 µM, read-out: HCT 116 Cell viability (%)", "value": 83.7, "unit": "%"}, {"measurement": "viability at 0.1235 µM", "setting": "HCT 116; Homo sapiens, HCT-116, 96 h, 0.1235 µM, read-out: HCT 116 Cell viability (%)", "value": 89, "unit": "%"}, {"measurement": "viability at 0.3704 µM", "setting": "HCT 116; Homo sapiens, HCT-116, 96 h, 0.3704 µM, read-out: HCT 116 Cell viability (%)", "value": 94.1, "unit": "%"}, {"measurement": "viability at 1.1111 µM", "setting": "HCT 116; Homo sapiens, HCT-116, 96 h, 1.1111 µM", "value": 90.8, "unit": "%"}, {"measurement": "viability at 3.3333 µM", "setting": "HCT 116; Homo sapiens, HCT-116, 96 h, 3.3333 µM, read-out: HCT 116 Cell viability (%)", "value": 74, "unit": "%"}, {"measurement": "viability at 10 µM", "setting": "HCT 116; Homo sapiens, HCT-116, 96 h, 10.0000 µM", "value": 45.5, "unit": "%"}, {"measurement": "Annexin V+ cells", "setting": "KAP^2D cells; 1 d of treatment", "value": "8.73% and 12.40% and 11.20% and 14.50% and 15.70% and 14.40%"}, {"measurement": "Annexin V+ cells", "setting": "KAP^2D cells; 2 d of treatment", "value": "12.80% and 17.60% and 14.40% and 15.50% and 16.80% and 17.40%"}, {"measurement": "Annexin V+ cells", "setting": "KAP^2D cells; 3 d of treatment", "value": "16.10% and 14.80% and 15.90% and 19.00% and 17.40% and 18.40%"}, {"measurement": "Annexin V+ cells", "setting": "KAP^2D cells; 4 d of treatment", "value": "26.70% and 25.10% and 21.50% and 18.80% and 17.30% and 19.40%"}]}]}
